{
  "source": "patent US7855228B2",
  "about": "“Antibiotics targeting MreB” (The Board of Trustees of the Leland Stamford Junior …, priority 2005, dated 2010)",
  "key": {"P. putida NBRC14164": {"tested_on": "P. putida NBRC14164", "assay": "Determination of minimum inhibitory concentration (MIC)", "assay_type": "cell-based, Pseudomonas putida", "details": "Pseudomonas putida, read-out: MIC P. putida", "summary_of_the_method": "(§1)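 Two-fold serial agar dilution on L agar and also on Mueller Hinton agar (pH 7.3); 10 µl of stationary-phase culture diluted in 0.85% NaCl to 10^6 cells/ml spotted per plate. MIC taken as lowest concentration inhibiting growth.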"}, "S. typhimurium NBRC13245": {"tested_on": "S. typhimurium NBRC13245", "assay": "Determination of minimum inhibitory concentration (MIC)", "assay_type": "cell-based, Salmonella typhimurium", "details": "Salmonella enterica, read-out: MIC S. typhimurium", "summary_of_the_method": "as §1"}, "B. subtilis 168": {"tested_on": "B. subtilis 168", "assay": "Determination of minimum inhibitory concentration (MIC)", "assay_type": "cell-based, Bacillus subtilis", "details": "read-out: MIC B. subtilis", "summary_of_the_method": "as §1"}, "B. subtilis": {"tested_on": "B. subtilis", "assay": "Induction of spherical cells", "assay_type": "cell-based", "source_text": "(§2) A22 was effective against Gram-negative rod-shaped bacteria."}, "P. putida": {"tested_on": "P. putida", "assay": "Induction of spherical cells", "assay_type": "cell-based", "source_text": "as §2"}, "S. typhimurium": {"tested_on": "S. typhimurium", "assay": "Induction of spherical cells", "assay_type": "cell-based", "source_text": "as §2"}, "Caulobacter crescentus": {"tested_on": "Caulobacter crescentus", "assay": "Caulobacter growth (optical density, doubling time)", "assay_type": "cell-based", "details": "for Doubling in A22 in WT Genetic Background / Doubling Time in A22 / Doubling in A22 when Replaced by WT mreB: cell mass over 6 hr, A660", "protocol": "Similar volumes of solvent (methanol) alone had no effect on growth. […] This rapid effect on cell growth could be due to a disruption in cell wall deposition or could reflect a secondary response to some other cellular perturbation.\nMreB Is the Direct Target of A22. To identify the cellular target(s) of A22, we carried out a screen for A22-resistant mutants by growing large numbers of Caulobacter on plates containing 10 μg/ml A22. We independently isolated 20 mutants that stably and repeatedly formed colonies on plates containing 10 μg/ml A22 and grew in liquid culture containing 10 μg/ml A22. Since MreB was proposed as a possible target of A22, we PCR-amplified and sequenced the mreB gene in the 20 A22-resistant strains and a control wild-type strain. Each of the 20 A22-resistant strains contained a single missense point mutation in its mreB gene, whereas the wild-type A22-sensitive strain had no mreB point mutations (Table 2). Though isolated independently, the 20 strains had only 7 different point mutations: one specific point mutation was found in 10 of the strains, another specific point mutation was found in 5 of the strains, and 5 additional point mutations were found in 1 strain each. Since all 7 of these mutations affected amino acids that are conserved between Caulobacter MreB and Thermotoga maritima MreB, they could be mapped onto the solved three-dimensional structure of T. maritima MreB. […] All of the resistant strains grow at a similar rate in rich PYE medium (w115 min/doubling), which is slower than wild-type cells without drug (87 min/doubling), but they are largely unaffected by the presence of A22 (w115 min/doubling) (Table 2).\nBacterial Strains and Growth Conditions. Caulobacter crescentus strains CB15N and derivatives were grown in PYE or M2G medium or agar plates supplemented with the appropriate combinations of antibiotics, glucose, xylose, A22, and the A22 diluent, methanol. The FROS strains labeled at both the origin and CC2943, CC3300, CC3656, and CC0091, or singly labeled at CC0786, and CC3192 were generated and characterized in a previous study, where they were referred to as MPO40, MPO53, MPO7, MPO133, MP156, and MP82, respectively. Growth and analysis conditions for the mreB depletion, holB:gfp, and FROS strains have been previously described. The methods for ΦCr30-mediated generalized phage transduction and swarmer cell isolation by Percoll density gradient centrifugation have also been described. Washes were performed by micro centrifugation at 8000 g. Twenty independent A22-resistant Caulobacter mutants were isolated by growing 20 single CB15N colonies overnight and plating 10^9 cells per culture on PYE plates containing 10 μg/ml A22. One A22-resistant colony from each plate was isolated, retested, and characterized. To sequence the mreB gene from these strains, mreB was PCR-amplified and the resulting band was gel-purified (Qiagen) and sequenced. Overlay PCR mutagenesis was used to introduce the […] point mutation (A509G) into the previously described PxyI:gfp:mreB construct."}, "Caulobacter": {"tested_on": "Caulobacter", "assay": "Colony formation assay", "assay_type": "cell-based, Caulobacter crescentus", "source_text": "To assess the impact of A22 on cell division and survival, we examined the effect of A22 on colony formation."}, "[1]": {"tested_on": "E. coli K-12 strains (ponB, mreB alleles)", "assay": "MICs of mecillinam and A22 for E. coli K-12 strains", "assay_type": "cell-based", "details": "for MIC: Escherichia coli", "protocol": "Determination of MIC Minimal inhibitory concentrations (MICs) were determined using a standard 2-fold serial dilution format on L agar plates. Ten microliters of stationary culture diluted in 0.85% NaCl to 10^6 cells/ml were spotted on per plate. […] MICs were also determined on Mueller Hinton agar plates (0.2% beef extract, 1.75% acid digest of casein, 0.15% soluble starch, 1.5% agar, pH 7.3)."}, "E. coli cells": {"tested_on": "E. coli cells", "assay": "Cell lysis", "assay_type": "cell-based", "source_text": "To facilitate the isolation of A22-resistant mutants a PBP 1B-defective (ponB^−) mutant strain, JST975, which forms a clear growth inhibitory zone upon A22 treatment, was selected as the parent strain in our screen. […] This correlates well with the increased sensitivity of mreB mutant strains to β-lactam antibiotics. In future screens for antibacterial agents derived from A22, it will be important to consider that the antibacterial effect of A22 on wild-type E. coli cells may be enhanced by simultaneous treatment with sub-lethal concentrations of β-lactam antibiotics."}},
  "note": "Like-named read-outs stand apart in the source and are kept apart here.",
  "data": [
    {"smiles": "N=C(N)SCc1ccc(Cl)c(Cl)c1", "note": "[Compound 1, S-(3,4-dichlorobenzyl)isothiourea]", "values": [
      {"measurement": "MIC", "setting": "P. putida NBRC14164; NBRC14164, Example 2, methods as in Example 1", "result": 100, "unit": "mg/L"},
      {"measurement": "MIC", "setting": "P. putida NBRC14164; NBRC14164, Table 1, NBRC14164", "result": 100, "unit": "mg/L"},
      {"measurement": "MIC", "setting": "S. typhimurium NBRC13245; Example 2, methods as in Example 1", "result": 3.13, "unit": "mg/L"},
      {"measurement": "MIC", "setting": "S. typhimurium NBRC13245; Table 1, NBRC13245", "result": 3.13, "unit": "mg/L"},
      {"measurement": "MIC", "setting": "B. subtilis 168; Bacillus subtilis, 168, Example 2, methods as in Example 1", "result": 100, "unit": "mg/L"},
      {"measurement": "MIC", "setting": "B. subtilis 168; Bacillus subtilis, 168, Table 1, B. subtilis 168", "result": 100, "unit": "mg/L"},
      {"measurement": "Induction of spherical cells in B. subtilis", "setting": "B. subtilis", "result": "did not"},
      {"measurement": "Induction of spherical cells in P. putida", "setting": "P. putida", "result": "induced spherical cells"},
      {"measurement": "Induction of spherical cells in S. typhimurium", "setting": "S. typhimurium", "result": "induced spherical cells"},
      {"measurement": "Effect on growth of Caulobacter cultures", "setting": "Caulobacter crescentus; 0.1-100 μg/ml, up to 6 hr", "result": "slowed growth in a dose-dependent fashion"},
      {"measurement": "Doubling in A22 in WT Genetic Background", "setting": "Caulobacter crescentus; mreB allele: A325P", "result": "115′"},
      {"measurement": "Doubling in A22 in WT Genetic Background", "setting": "Caulobacter crescentus; mreB allele: D16G", "result": "112′"},
      {"measurement": "Doubling in A22 in WT Genetic Background", "setting": "Caulobacter crescentus; mreB allele: D192G", "result": "116′"},
      {"measurement": "Doubling in A22 in WT Genetic Background", "setting": "Caulobacter crescentus; mreB allele: L23R", "result": "120′"},
      {"measurement": "Doubling in A22 in WT Genetic Background", "setting": "Caulobacter crescentus; mreB allele: None (wt)", "result": "156′"},
      {"measurement": "Doubling in A22 in WT Genetic Background", "setting": "Caulobacter crescentus; mreB allele: P112S", "result": "119′"},
      {"measurement": "Doubling in A22 in WT Genetic Background", "setting": "Caulobacter crescentus; mreB allele: T167A", "result": "105′"},
      {"measurement": "Doubling in A22 in WT Genetic Background", "setting": "Caulobacter crescentus; mreB allele: V324A", "result": "115′"},
      {"measurement": "Doubling Time in A22", "setting": "Caulobacter crescentus; mreB mutation: A325P", "result": "116′"},
      {"measurement": "Doubling Time in A22", "setting": "Caulobacter crescentus; mreB mutation: D16G", "result": "115′"},
      {"measurement": "Doubling Time in A22", "setting": "Caulobacter crescentus; mreB mutation: D192G", "result": "118′"},
      {"measurement": "Doubling Time in A22", "setting": "Caulobacter crescentus; mreB mutation: L23R", "result": "121′"},
      {"measurement": "Doubling Time in A22", "setting": "Caulobacter crescentus; mreB mutation: None (wt)", "result": "148′"},
      {"measurement": "Doubling Time in A22", "setting": "Caulobacter crescentus; mreB mutation: P112S", "result": "118′"},
      {"measurement": "Doubling Time in A22", "setting": "Caulobacter crescentus; mreB mutation: T167A", "result": "110′"},
      {"measurement": "Doubling Time in A22", "setting": "Caulobacter crescentus; mreB mutation: V324A", "result": "113′"},
      {"measurement": "Time after A22 treatment at which a decline in growth rate was observed", "setting": "Caulobacter crescentus; rich PYE medium", "result": 30, "unit": "min"},
      {"measurement": "Doubling in A22 when Replaced by WT mreB", "setting": "Caulobacter crescentus; strain: A325P", "result": "144′"},
      {"measurement": "Doubling in A22 when Replaced by WT mreB", "setting": "Caulobacter crescentus; strain: D16G", "result": "150′"},
      {"measurement": "Doubling in A22 when Replaced by WT mreB", "setting": "Caulobacter crescentus; strain: None (wt)", "result": "145′"},
      {"measurement": "Doubling in A22 when Replaced by WT mreB", "setting": "Caulobacter crescentus; strain: P112S", "result": "146′"},
      {"measurement": "Doubling in A22 when Replaced by WT mreB", "setting": "Caulobacter crescentus; strain: T167A", "result": "148′"},
      {"measurement": "Doubling in A22 when Replaced by WT mreB", "setting": "Caulobacter crescentus; strain: V324A", "result": "142′"},
      {"measurement": "Colony formation (CFU)", "setting": "Caulobacter; 0.1 μg/ml", "result": "un-perturbed"},
      {"measurement": "Colony formation (CFU)", "setting": "Caulobacter; 1 μg/ml", "result": "partially slowed colony formation"},
      {"measurement": "Colony formation (CFU)", "setting": "Caulobacter; 10 μg/ml and higher", "result": "completely halted the increase in CFU"},
      {"measurement": "MIC", "setting": "[1]; read-out: MICs, strain JA221 (ponB −, mreB221)", "result": 100, "unit": "mg/L"},
      {"measurement": "MIC", "setting": "[1]; read-out: MICs, strain JE1011 (ponB +, mreB +)", "result": 6.25, "unit": "mg/L"},
      {"measurement": "MIC", "setting": "[1]; read-out: MICs, strain JM109/pMW218 (ponB +, mreB +/−)", "result": 6.25, "unit": "mg/L"},
      {"measurement": "MIC", "setting": "[1]; read-out: MICs, strain JM109/pMreB1 (ponB +, mreB +/+)", "result": 25, "unit": "mg/L"},
      {"measurement": "MIC", "setting": "[1]; read-out: MICs, strain JM109/pMreB221 (ponB +, mreB +/mreB221)", "result": 100, "unit": "mg/L"},
      {"measurement": "MIC", "setting": "[1]; read-out: MICs, strain JST975 (ponB −, mreB +)", "result": 1.6, "unit": "mg/L"},
      {"measurement": "MIC", "setting": "[1]; read-out: MICs, strain JSTA220 (ponB −, mreB +)", "result": 3.12, "unit": "mg/L"},
      {"measurement": "MIC", "setting": "[1]; read-out: MICs, strain JSTA221 (ponB −, mreB221)", "result": 100, "unit": "mg/L"},
      {"measurement": "MIC", "setting": "[1]; read-out: MICs, strain WA220 (ponB +, mreB +)", "result": 6.25, "unit": "mg/L"},
      {"measurement": "MIC", "setting": "[1]; read-out: MICs, strain WA221 (ponB +, mreB221)", "result": "> 100", "unit": "mg/L"},
      {"measurement": "MICs", "setting": "[1]; strain JST975 (ponB −, mreB +), listed as A22", "result": 3.125, "unit": "µg/mL"},
      {"measurement": "Lysis of E. coli cells in the absence of PBP 1B", "setting": "E. coli cells; JST975 liquid culture", "result": "induces cell lysis"},
      {"measurement": "Lysis of wild-type E. coli cells", "setting": "E. coli cells; wild-type", "result": "does not lyse"}
    ]}
  ]
}
